Laboratory results from ChEMBL document CHEMBL4229435, “Synthesis and antimicrobial activity of β-carboline derivatives with N2-alkyl modifications” (2018).
In brackets after ≈: the same amount, converted by molar mass.

Columns and labels:
Assay type in all cases: functional
[1] = test system: Staphylococcus aureus; experiment: Antimicrobial activity against methicillin-sensitive Staphylococcus aureus ATCC 25923 after 24 hrs by agar plate dilution method; settings: ATCC 25923, 24 h
[2] = test system: Staphylococcus aureus; experiment: Antimicrobial activity against methicillin-resistant Staphylococcus aureus GAI 10151 after 24 hrs by agar plate dilution method; settings: GAI 10151, 24 h
[3] = test system: Staphylococcus aureus; experiment: Antimicrobial activity against methicillin-resistant Staphylococcus aureus GAI 10152 after 24 hrs by agar plate dilution method; settings: GAI 10152, 24 h
[4] = test system: Staphylococcus aureus; experiment: Antimicrobial activity against methicillin-resistant Staphylococcus aureus GAI 10153 after 24 hrs by agar plate dilution method; settings: GAI 10153, 24 h
[5] = test system: Escherichia coli; experiment: Antimicrobial activity against Escherichia coli ATCC 25922 after 24 hrs by agar plate dilution method; settings: ATCC 25922, 24 h
[6] = test system: Pseudomonas aeruginosa; experiment: Antimicrobial activity against Pseudomonas aeruginosa GAI 12066 after 24 hrs by agar plate dilution method; settings: GAI 12066, 24 h
[7] = test system: Acinetobacter baumannii; experiment: Antimicrobial activity against Acinetobacter baumannii GAI 07545 after 24 hrs by agar plate dilution method; settings: GAI 07545, 24 h
[8] = test system: Candida albicans; experiment: Antimicrobial activity against Candida albicans GAI 05108 after 24 hrs by agar plate dilution method; settings: GAI 05108, 24 h
[9] = test system: [Candida] intermedia; experiment: Antimicrobial activity against Candida intermedia GAI 15003 after 24 hrs by agar plate dilution method; settings: Sungouiella intermedia, GAI 15003, 24 h
[10] = test system: Pichia kudriavzevii; experiment: Antimicrobial activity against Candida krusei ATCC 14243 after 24 hrs by agar plate dilution method; settings: ATCC 14243, 24 h
[11] = test system: Staphylococcus aureus; experiment: Antimicrobial activity against methicillin-resistant Staphylococcus aureus GAI 11112 after 24 hrs by agar plate dilution method; settings: GAI 11112, 24 h

Structure (SMILES)	MIC [1]	MIC [2]	MIC [3]	MIC [4]	MIC [5]	MIC [6]	MIC [7]	MIC [8]	MIC [9]	MIC [10]	MIC [11]
Clc1ccc2[nH]c3c[n+](Cc4ccccn4)ccc3c2c1	> 1000 µM	> 1000 µM	> 1000 µM	> 1000 µM	> 1000 µM	> 1000 µM	> 1000 µM	> 1000 µM	500 µM	> 1000 µM	
C[n+]1ccc2c(c1)[nH]c1ccccc12	> 1000 µM				1000 µM			500 µM	125 µM	125 µM	1000 µM
C[n+]1ccc2c(c1)[nH]c1ccc(Cl)cc12 [NOSTOCARBOLINE]	> 1000 µM	> 1000 µM	> 1000 µM	> 1000 µM	500 µM	> 1000 µM	> 1000 µM	> 1000 µM	> 1000 µM	50 µM	
C[n+]1ccc2c3cc(Cl)ccc3n(-n3c4ccc(Cl)cc4c4cc[n+](C)cc43)c2c1	50 µM	500 µM	50 µM	50 µM	500 µM	> 1000 µM	> 1000 µM	> 1000 µM	50 µM	500 µM	
Clc1ccc2[nH]c3c[n+](Cc4ccccc4)ccc3c2c1	> 1000 µM	500 µM	500 µM	500 µM	> 1000 µM	> 1000 µM	500 µM	> 1000 µM	10 µM	500 µM	
C[n+]1ccc2c3ccccc3n(-n3c4ccccc4c4cc[n+](C)cc43)c2c1	125 µM				1000 µM			500 µM	125 µM	500 µM	125 µM
c1ccc2c(c1)[nH]c1cnccc12 [NORHARMANE]	> 1000 µM				250 µM (≈ 42 µg/mL)			125 µM (≈ 21 µg/mL)	125 µM (≈ 21 µg/mL)	125 µM (≈ 21 µg/mL)	250 µM (≈ 42 µg/mL)
Clc1ccc2c(c1)c1cc[n+](Cc3ccccn3)cc1n2-n1c2ccc(Cl)cc2c2cc[n+](Cc3ccccn3)cc21	> 1000 µM	> 1000 µM	> 1000 µM	> 1000 µM	> 1000 µM	> 1000 µM	> 1000 µM	> 1000 µM	500 µM	> 1000 µM	
Clc1ccc2c(c1)c1cc[n+](Cc3ccccc3)cc1n2-n1c2ccc(Cl)cc2c2cc[n+](Cc3ccccc3)cc21	10 µM	50 µM	10 µM	10 µM	500 µM	> 1000 µM	500 µM	500 µM	10 µM	500 µM	
c1ccc2c(c1)c1ccncc1n2-n1c2ccccc2c2ccncc21	> 1000 µM				> 1000 µM			> 1000 µM	125 µM (≈ 41.8 µg/mL)	> 1000 µM	> 1000 µM
